≈ marks a conversion by molar mass, not a printed value. Like-named read-outs stand apart in the source and are kept apart here. Blank lines part the entries; values can stand above or below the compound they belong to.
What was measured:
Cytotoxicity assay (MTT) = format: cell-based
Experimental: (§1) To evaluate the biological effects of compounds 1–6, various assays were carried out. The antimicrobial activity of the isolated compounds against Bacillus subtilis DSM10, Escherichia coli DSM498, Candida tenuis MUCL29892, and Mucor plumbeus MUCL49355 was determined as described by Kuephadungphan and co-workers. The nematicidal activity against Caenorhabditis elegans was investigated using a microtiter plate assay according to Helaly and co-workers, while the cytotoxicity was tested against murine fibroblast (L929) and human HeLa (KB3.1) cell lines according to Chepkirui and co-workers.
(§2) Biological activity screening of compounds 1–6 […]
The isolated compounds were tested for cytotoxic activity using the MTT (3 -(4,5-dimethylthiayol -2-yl)-2,5-diphenyltetrayolium bromide) method in 96 -well microtiter plates following the procedure previously described by Chepkirui et al.7 against th e cervix carcino ma cell line KB3.1 and the established mouse fibroblast cell line L929. The assay was kindly conducted by Wera Collisi, Department of Microbial Drugs, Helmholtz Centre of Infection Research, Germany. The tested cell lines were cultured in EBM -2 (Lonza) sup plemented with 10% fetal bovine serum (Gibco) under 10% CO2 at 37 °C. A 60 µL of serial dilutions from an initial stock (1 mg/mL) of the test compounds in MeOH was added to 120 µL aliquots of a cell suspension (50,000 cells/mL) in 96-well microplates.
After incubation for five days, 20 µL of MTT in phosphate buffered saline (PBS) were added to give a final concentration of 0.5 mg/mL. The plates were further incubated for two hours. The precipitate […]
of formazan crystals was centrifuged and the supernatant was then discarded. Each well was washed with 100 µL of PBS and 100 µL of isopropanol containing 0.4% hydrochloric acid were subsequently added in order to get the residual dissolved. The plates were gently shaken for 20 min before the absorbance at 590 nm was measured using an ELISA microplate reader (Victor). The concentration, at which the growth of cells was inhibited to 50% of the control (IC50), was obtained from the dose - response curves. Methanol was used as negative control while epothilone A and B wer e used as positive controls for L929 and KB3.1 cell lines, respectively. […]
(§3) After incubation at 37 °C under shaking condition, the overnight cultures were adjusted to equal the turbidity of 0.5 McFarland standard using the assay medium. The assay was carried out in 96 -well tissue cultured -treated microplates (TPP®, Germany) for S. aureus and non-treated plates (Falcon®MicroTestTM, USA) for P. aeruginosa , in which 10 μ L of each compound (0.5 mg/m L) in six replicates were mixed together with 140 μ L of bacterial suspension. Methanol and CASO medium with and without 4% glucose were used as negative controls and tetracycline (100 μg/m L) as positive control. Plates were covered with a sterile adhesive porous paper (Kisker Biotech GmbH, Steinfurt, Germany) and incubated at 37 °C for 24 h.
After incubation, ba cterial biofilms were stained with 0.1% crystal violet solution (Sigma -Aldrich) following the protocol of O’Toole .9 Then, the biofilm was subsequently quantified using a microplate reader at 550 nm. […]
aeruginosa PA14 were further evaluated for their bacteriostatic and bactericidal activit ies. The assay was performed in the Bioscreen 100 -well Honeycomb plate according to the protocol described by Yuyama et al. 13 where the MIC values were determined. […]

[1] = test system: Staphylococcus aureus DSM1104; experiment: Anti-biofilm activity, microtiter dish biofilm formation assay; format: cell-based; conditions: S. aureus DSM1104 (ATCC25923); lowest concentration preventing biofilm formation by at least 50%; 24 h; NA = No activity
Experimental: (§4) The isolated compounds were also tested for their ability to interfere in the biofilm formation of Staphylococcus aureus DSM1104 and Pseudomonas aeruginosa PA14 [51]. The biofilm inhibition assay was performed in 96-well microtiter plates using the microtiter dish biofilm formation assay described by O’Toole, with minor modifications, as outlined in our recent publications. The antibiofilm activity is expressed as MIC values, which is defined as the lowest concentration of substance that prevents biofilm formation of a target microorganism by at least 50%. […]
(§5) Anti-biofilm activity assay
as §3, with “The determination of the ability of isolated compounds to prevent biofilm formation of S. aureus DSM1104 (ATCC25923) and P. aeruginosa PA148 was performed using the microtiter dish biofilm formation assay described by O’Toole9 with minor modification provided in our recent publications 1, 6, 10–14. The biofilm forming strains were enriched overnight in CASO medium with and without 4% glucose for S. aureus and P. aeruginosa , respectively. After” for “After”
(§6) After incubation, ba cterial biofilms were stained with 0.1% crystal violet solution (Sigma -Aldrich) following the protocol of O’Toole .9 Then, the biofilm was subsequently quantified using a microplate reader at 550 nm. 12 In the current study, the antibiofilm activity was expr essed as MIC value which was defined as the lowest concentration of substance that prevents the biofilm formation of a target microorganism by at least 50%. […]

Bacillus subtilis DSM10 = experiment: Antimicrobial activity, broth microdilution MIC; format: cell-based; conditions: Bacillus subtilis DSM10, 24 h, range 2.34–300 μg/mL, NA = No activity
Experimental: as §1
(§7) Biological activity screening of compounds 1–6
(§8) Antimicrobial activity assay
(§9) The minimum inhibitory concentration (MIC) of compounds 1–6 was determined using the broth microdilution method according to Kuephadungphan et al.4 against B. subtilis DSM10, E. coli DSM498, C. tenuis MUCL29892 and M. plumbeus MUCL49355. Stock suspension of each bacterium and yeast (100 μL) was transferred to 100 mL of EBS medium and YM medium, respectively.
(§10) Suspensions of B. subtilis and C. tenuis were incubated on a rotary shaker at 30 °C for 18–24 h while E. coli was grown at 37 °C for 24 h. After incubation, the suspension was adjusted to a concentration of 6.7 × 10^5 cells/mL using a hemacytometer. The spore suspension of M. plumbeus was prepared at a concentration of 6.7 × 10^5 conidia/mL using YM medium. The determination of MIC was performed in a 96-well microtiter plate. The compounds dissolved in methanol at a concentration of 4.5 mg/mL (20 μL) were transferred to the first row of the plate. Standard antibiotics including ciprofloxacin (bacteria) and nystatin (yeast and fungus), and methanol were used as positive and negative controls, respectively. Inoculum suspension (280 μL) was added to the first row containing compounds and 150 μL were added to the rest. The solutions were then serially 2-fold diluted to 8 concentrations ranging from 2.34–300 μg/mL. Plates were incubated at 30 °C on a microplate-vibrating shaker for 24 h for bacteria and 48 h for yeast and filamentous fungus. […]
(§11) The assay was kindly conducted by Wera Collisi, Department of Microbial Drugs, Helmholtz Centre of Infection Research, Germany. The tested cell lines were cultured in EBM -2 (Lonza) sup plemented with 10% fetal bovine serum (Gibco) under 10% CO2 at 37 °C. A 60 µL of serial dilutions from an initial stock (1 mg/mL) of the test compounds in MeOH was added to 120 µL aliquots of a cell suspension (50,000 cells/mL) in 96-well microplates.
(§12) After incubation for five days, 20 µL of MTT in phosphate buffered saline (PBS) were added to give a final concentration of 0.5 mg/mL. The plates were further incubated for two hours. The precipitate

Escherichia coli DSM498 = experiment: Antimicrobial activity, broth microdilution MIC; format: cell-based; conditions: 24 h, NA = No activity
Experimental: as §1, §7, §8, §9, §10, §11, §12

Candida tenuis MUCL29892 = experiment: Antimicrobial activity, broth microdilution MIC; format: cell-based; conditions: Candida tenuis MUCL 29892; 48 h; NA = No activity
Experimental: as §1, §7, §8, §9, §10, §11, §12

Mucor plumbeus MUCL49355 = experiment: Antimicrobial activity, broth microdilution MIC; format: cell-based; conditions: Mucor plumbeus MUCL 49355; 48 h; NA = No activity
Experimental: as §1, §7, §8, §9, §10, §11, §12

[2] = test system: Pseudomonas aeruginosa PA14; experiment: Anti-biofilm activity, microtiter dish biofilm formation assay; format: cell-based; conditions: lowest concentration preventing biofilm formation by at least 50%, 24 h, NA = No activity
Experimental: as §4, §5
as §3, with “The determination of the ability of isolated compounds to prevent biofilm formation of S. aureus DSM1104 (ATCC25923) and P. aeruginosa PA148 was performed using the microtiter dish biofilm formation assay described by O’Toole9 with minor modification provided in our recent publications 1, 6, 10–14. The biofilm forming strains were enriched overnight in CASO medium with and without 4% glucose for S. aureus and P. aeruginosa , respectively. After” for “After”
as §6

[3] = parameters: method as in PMID 2143181; conditions: cited from earlier work
Caenorhabditis elegans = experiment: Nematicidal activity microwell plate assay; format: cell-based; conditions: 18 h, tested 100, 50, 20 and 10 μg/mL, NA = No activity
Experimental: as §1, §2
Nematicidal activity assay
The nematicidal activity of the new compounds against C. elegans was performed by a microwell plate assay reported by Stadler et al.5 with slightly modification. The modified protocol was reported by Helaly et al.6 The studied compounds were dissolved with methanol to a concentration of […] and subsequently diluted 1:100 with sterile distilled water. […] Finally, the nematodes were counted using a Malassez counting chamber and further adjusted to obtain a concentration of 500 nematodes/mL with sterile distilled water. […] The plate was incubated at 20 °C in the dark and nematicidal activity was recorded after 18 h of incubation. The nematodes were counted under a stereo microscope. […]

Compound: CCCC[C@H](C)[C@@H]1CC(=O)N[C@@H](Cc2ccccc2)C(=O)N[C@@H](C)C(=O)N[C@H](CC(C)C)C(=O)O1 [Beauverolide I (5), beauverolide I]
IC50 at 5 days (Cytotoxicity assay (MTT); human): 20 µg/mL (≈ 41 µM)

Anti-biofilm activity (MIC) SA [1]: 250 µg/mL
Compound: CCCC[C@H](C)[C@@H]1CC(=O)N[C@@H](Cc2ccc(O)cc2)C(=O)N[C@@H](C)C(=O)N[C@H](CC(C)C)C(=O)O1 [Beauverolide N (4), beauverolide N]
IC50 at 5 days (Cytotoxicity assay (MTT); human, KB3.1 cells (HeLa, cervix carcinoma cell line), HeLa cell line KB3.1, MTT, five days, NA = No activity, a = Proliferation inhibition, no altered or dead cells, read-out: Cytotoxicity (IC50) KB3.1): 16 µg/mL (≈ 31.8 µM)

MIC (Bacillus subtilis DSM10; read-out: Antimicrobial activity (MIC) BS): 0.52 µg/mL (≈ 1.57 µM)
MIC (Escherichia coli DSM498; read-out: Antimicrobial activity (MIC) EC): 0.52 µg/mL (≈ 1.57 µM)
Compound: O=C(O)c1cn(C2CC2)c2cc(N3CCNCC3)c(F)cc2c1=O [Ciprofloxacin, ciprofloxacin, reference compound]

Compound: C/C(=C\c1csc(C)n1)[C@@H]1C[C@@H]2O[C@@H]2CCC[C@H](C)[C@H](O)[C@@H](C)C(=O)C(C)(C)[C@@H](O)CC(=O)O1 [Epothilone A, epothilone A]
IC50 at 5 days (Cytotoxicity assay (MTT); mouse, Murine fibroblast cell line L929, five days, NA = No activity): 0.0038 µg/mL (≈ 0.0077 µM)

Compound: C/C(=C\c1csc(C)n1)[C@@H]1C[C@@H]2O[C@]2(C)CCC[C@H](C)[C@H](O)[C@@H](C)C(=O)C(C)(C)[C@@H](O)CC(=O)O1 [Epothilone B, epothilone B, reference compound]
IC50 at 5 days (Cytotoxicity assay (MTT); human, HeLa cell line KB3.1, MTT, five days, NA = No activity, a = Proliferation inhibition, no altered or dead cells, read-out: Cytotoxicity (IC50) KB3.1): 0.00022 µg/mL (≈ 0.000433 µM)

Antimicrobial activity (MIC) BS (Bacillus subtilis DSM10): devoid of activity
Antimicrobial activity (MIC) CT (Candida tenuis MUCL29892): devoid of activity
Antimicrobial activity (MIC) EC (Escherichia coli DSM498): devoid of activity
Antimicrobial activity (MIC) MP (Mucor plumbeus MUCL49355): devoid of activity
Compound: CC=CC=CC1Cc2cc(OC3OC(CO)C(OC)C(O)C3O)cc(O)c2O1 (centres unmarked) [Glucoasperfuran (3), glycoasperfuran]

Compound: C[C@@H]1[C@H](O)[C@@H](C)/C=C/C=C/CC/C=C/C=C/C=C/C=C/C(O[C@H]2O[C@H](C)[C@@H](O)[C@H](N)[C@@H]2O)CC2O[C@](O)(CC(O)C(O)CCC(O)CC(O)CC(O)CC(=O)O[C@H]1C)CC(O)C2C(=O)O (some centres unmarked) [Nystatin, nystatin, reference compound]
Antimicrobial activity (MIC) CT (Candida tenuis MUCL29892): 0.52 µg/mL
Antimicrobial activity (MIC) MP (Mucor plumbeus MUCL49355): 8.33 µg/mL

Compound: CN(C)[C@@H]1C(O)=C(C(N)=O)C(=O)[C@@]2(O)C(O)=C3C(=O)c4c(O)cccc4[C@@](C)(O)[C@H]3C[C@@H]12 [Tetracycline, tetracycline, reference compound]
Anti-biofilm activity (MIC) PA [2]: 1.9 µg/mL
Anti-biofilm activity (MIC) SA [1]: 1.9 µg/mL

Compound: C/C=C/C=C/[C@H]1Cc2cc(O)cc(O)c2O1 [asperfuran]
Antifungal activity [3]: moderately antifungal

Compound: ivermectin [reference compound]
Nematicidal CE (Caenorhabditis elegans): 7.5 µg/mL

Reference: publication PMC6941404, “Pigmentosins from Gibellula sp. as antibiofilm agents and a new glycosylated asperfuran from Cordyceps javanica” (Beilstein Journal of Organic Chemistry, 2019)
